For one molecule, EC50 and IC50 results are on record in ChEMBL document CHEMBL1201862, “PubChem BioAssay data set” (2004).

A word on the EC50: it is the midpoint of the concentration-response curve. As usually defined, the IC50 is the midpoint of a concentration-inhibition curve.

Experiment [1] concerns the target T1, Streptokinase A (Streptococcus pyogenes serotype M1, UniProt P10520).
T1 sequence (P10520 whole entry): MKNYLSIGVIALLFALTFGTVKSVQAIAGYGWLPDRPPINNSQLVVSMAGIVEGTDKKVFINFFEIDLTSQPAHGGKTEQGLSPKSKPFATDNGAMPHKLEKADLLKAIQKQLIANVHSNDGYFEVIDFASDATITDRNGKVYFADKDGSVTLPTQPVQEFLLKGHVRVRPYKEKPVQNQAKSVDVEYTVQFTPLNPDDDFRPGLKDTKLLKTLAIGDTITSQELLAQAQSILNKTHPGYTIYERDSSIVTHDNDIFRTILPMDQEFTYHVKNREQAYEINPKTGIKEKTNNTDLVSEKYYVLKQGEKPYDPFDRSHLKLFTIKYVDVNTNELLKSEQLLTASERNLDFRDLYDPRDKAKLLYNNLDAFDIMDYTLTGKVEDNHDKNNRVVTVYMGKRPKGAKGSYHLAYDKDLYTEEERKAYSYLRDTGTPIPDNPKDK
Description: S. pyogenes streptokinase expression inhibitors, potency, dose response, plasminogen activation absorbance, OD405 (AID 1914).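 Further: secreted streptokinase activity via plasminogen activation per viability signal from cell pellet.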 Format: functional, Streptococcus pyogenes M1 GAS.

The target of experiment [2] is T2, Apoptotic protease-activating factor 1 (Homo sapiens, UniProt O14727).
T2 sequence (O14727 whole entry): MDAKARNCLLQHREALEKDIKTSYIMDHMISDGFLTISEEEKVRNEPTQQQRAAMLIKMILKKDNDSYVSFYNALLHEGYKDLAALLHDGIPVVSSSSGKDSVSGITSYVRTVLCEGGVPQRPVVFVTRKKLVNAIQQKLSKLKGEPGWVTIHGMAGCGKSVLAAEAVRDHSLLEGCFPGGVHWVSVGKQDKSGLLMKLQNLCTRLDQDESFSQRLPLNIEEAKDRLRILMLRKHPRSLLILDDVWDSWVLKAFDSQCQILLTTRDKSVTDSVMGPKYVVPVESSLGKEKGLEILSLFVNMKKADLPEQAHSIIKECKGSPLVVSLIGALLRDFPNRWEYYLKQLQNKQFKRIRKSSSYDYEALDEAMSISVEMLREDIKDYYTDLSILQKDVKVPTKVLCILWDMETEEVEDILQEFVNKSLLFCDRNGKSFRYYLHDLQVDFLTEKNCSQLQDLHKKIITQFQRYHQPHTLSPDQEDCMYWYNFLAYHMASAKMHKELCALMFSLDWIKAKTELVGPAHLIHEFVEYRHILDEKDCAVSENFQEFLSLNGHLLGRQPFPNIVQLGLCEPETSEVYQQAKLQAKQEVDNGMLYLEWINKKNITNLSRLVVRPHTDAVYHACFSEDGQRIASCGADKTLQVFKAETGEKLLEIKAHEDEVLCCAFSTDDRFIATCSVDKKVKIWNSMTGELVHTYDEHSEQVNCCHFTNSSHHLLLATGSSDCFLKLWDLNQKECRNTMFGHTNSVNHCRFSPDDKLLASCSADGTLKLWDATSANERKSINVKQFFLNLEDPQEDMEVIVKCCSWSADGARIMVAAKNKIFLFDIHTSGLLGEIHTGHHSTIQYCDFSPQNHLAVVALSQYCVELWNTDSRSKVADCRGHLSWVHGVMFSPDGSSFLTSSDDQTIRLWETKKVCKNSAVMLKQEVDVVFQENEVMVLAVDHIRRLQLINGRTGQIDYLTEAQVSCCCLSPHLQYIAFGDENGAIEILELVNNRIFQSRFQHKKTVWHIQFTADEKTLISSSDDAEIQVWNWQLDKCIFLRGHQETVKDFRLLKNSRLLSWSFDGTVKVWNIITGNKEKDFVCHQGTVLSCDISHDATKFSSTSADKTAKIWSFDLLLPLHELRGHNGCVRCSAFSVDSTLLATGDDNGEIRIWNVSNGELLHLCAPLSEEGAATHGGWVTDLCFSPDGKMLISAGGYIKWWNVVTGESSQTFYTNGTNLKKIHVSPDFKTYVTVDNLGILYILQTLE
It counts as functional.

In experiment [3] the test system is Streptococcus. Nature of the experiment: Group A Streptococcus viability loss, dose response, counter-screen for streptokinase expression inhibitor project, luminescence, BacTiterGlo (AID 1915).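 Further: potency for reduction of bacterial viability or growth.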 It counts as functional, organism-based. (A counterscreen serves to expose hits that act by an unwanted route or on another target.)
The test system of experiment [4] is Streptococcus sp. 'group A'. Nature of the experiment: growth inhibition of control SK(-) GAS strain, dose response, counter-screen for streptokinase expression inhibitor project, luminescence, kanamycin, BacTiterGlo, confirmation (AID 1900). Format: functional, organism-based.
Experiment [5] deals with T3, Sentrin-specific protease 8 (Homo sapiens, UniProt Q96LD8).
T3 sequence (Q96LD8 whole entry): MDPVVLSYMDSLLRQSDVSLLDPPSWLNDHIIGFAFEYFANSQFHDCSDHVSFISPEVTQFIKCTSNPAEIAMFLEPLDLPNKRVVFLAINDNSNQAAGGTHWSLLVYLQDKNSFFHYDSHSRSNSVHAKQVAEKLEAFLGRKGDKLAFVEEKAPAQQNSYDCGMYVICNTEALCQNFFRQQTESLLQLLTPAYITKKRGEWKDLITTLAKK
It counts as functional.

Experiment [6] addresses Tyrosyl-DNA phosphodiesterase 2 (Homo sapiens, UniProt O95551). Description: human TDP2 enzyme inhibitors, dose response, biochemical, epi absorbance, IC50 (AID 743297).

The source made the active and inactive calls.

Tyrosyl-DNA phosphodiesterase 2, sequence (O95551 whole entry): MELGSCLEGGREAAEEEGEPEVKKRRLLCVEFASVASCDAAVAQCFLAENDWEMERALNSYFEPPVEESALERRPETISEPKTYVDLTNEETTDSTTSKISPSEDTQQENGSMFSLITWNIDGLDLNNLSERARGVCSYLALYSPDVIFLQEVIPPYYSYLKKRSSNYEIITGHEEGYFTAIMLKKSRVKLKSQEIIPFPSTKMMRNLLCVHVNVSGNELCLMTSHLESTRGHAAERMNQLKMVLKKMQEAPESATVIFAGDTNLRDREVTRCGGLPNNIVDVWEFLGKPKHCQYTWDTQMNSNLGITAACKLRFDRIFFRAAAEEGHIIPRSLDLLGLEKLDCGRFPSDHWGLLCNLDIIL

Consider `Clc1ccc(C2=CSC3=Nc4cccc5cccc(c45)N23)cc1`, for which the EC50 in experiment [1] is > 150 µM (not active); in experiment [3], 17.1 µM (active); in experiment [4], 4.17 µM (active). In addition, the half-maximal inhibitory concentration (IC50) in experiment [2] was 17.9 µM (active); in experiment [5], 2.04 µM (active); in experiment [6] it was > 128 µM (inactive).
